The record followed here is US20110182949A1, “STABILIZED TRANSDERMAL DRUG DELIVERY SYSTEM” (priority 2008, published 2011).

The data set in a line: Glass transition temperature (DSC). The settings on record: amorphous drug, dispersed in patch or undispersed. The data set is classed as physicochemical.

Description: Example 1: To a glass jar Plastone 29/32 (12 g) and ethanol (7.56 g) were added. The admixture was mixed with a spatula, heated and sonicated in a water bath at 45° C. until a viscous solution was formed. To the solution was added scopolamine base (4.00 g). The admixture was mixed with a spatula, heated, sonicated and swirled until a clear viscous solution was formed. After the solution was cooled for a while, Dow Corning silicone adhesive 7-4302 (40.82 g, 60% solid) and ethyl acetate (8.34 g) were added. The material was quickly mixed at high shear to provide a cream-like uniform suspension. After air bubbles were removed by rolling overnight, the suspension was coated to a release liner, dried at room temperature for 5 minutes, in an oven set at 40° C. for 5 minutes and in an oven set at 85° C. for 5 minutes to form a thin layer of adhesive on release liner. A backing film Mediflex® 1502 was laminated to the adhesive side. Individual patches were die-cut and pouched.

`CN1[C@@H]2C[C@@H](OC(=O)[C@H](CO)c3ccccc3)C[C@H]1[C@@H]1O[C@@H]12` [undispersed amorphous scopolamine, scopolamine]: the “glass transition temperature (Tg)” value is “about 10 °C”.

Regarding `O=C1CC[C@@]2(O)[C@H]3Cc4ccc(O)c5c4[C@@]2(CCN3CC2CC2)[C@H]1O5` [naltrexone], the “glass transition temperature (Tg)” value was determined as 79.5 °C.
